In EPA's ToxRefDB 2:

Legend:
[1] = system: rat; details: Multigenerational reproductive toxicity study, sprague dawley, Oral, Gavage/Intubation, dose end: 2 generation
[2] = system: rat; details: Multigenerational reproductive toxicity study, other, Oral, Feed, dose end: 2 generation
[3] = system: rat; details: Prenatal developmental toxicity study, fischer, Oral, Gavage/Intubation, dose end: 15 GD
[4] = system: mouse; details: Multigenerational reproductive toxicity study, cd1, Oral, Feed, dose end: 1 generation
[5] = system: rat; details: Multigenerational reproductive toxicity study, sprague dawley, Oral, Feed, dose end: 2 generation
[6] = system: rat; details: Subchronic oral toxicity in rodents, Feed, dose end: 13 week, group: systemic, systemic / clinical chemistry / aspartate aminotransferase (ast/sgot) / aspartate aminotransferase (ast/sgot) + systemic / clinical …
[7] = system: dog; details: Chronic toxicity; beagle; Oral; Feed; dose end: 52 week; group: systemic; systemic / in life observation / body weight / body weight + systemic / in life observation / food consumption / food consumption + systemic…
[8] = system: rat; details: Chronic toxicity, fischer, Oral, [Not Specified], dose end: 24 month, group: systemic
[9] = system: rat; details: Peri- and post-natal toxicity study (Segment III), sprague dawley, Oral, Gavage/Intubation, dose end: 43 PND
[10] = system: rat; details: Peri- and post-natal toxicity study (Segment III), sprague dawley, Oral, Gavage/Intubation, dose end: 40 PND
[11] = system: rabbit; details: Prenatal developmental toxicity study, new zealand white, Oral, Gavage/Intubation, dose end: 19 GD
[12] = system: rat; details: Multigenerational reproductive toxicity study, sprague dawley, Oral, Feed, dose end: 2 generation; remark: listed apart in the source
[13] = system: rabbit; details: Prenatal developmental toxicity study, dutch, Oral, Gavage/Intubation, dose end: 19 GD
[14] = system: mouse; details: Prenatal developmental toxicity study, cd1, Oral, Gavage/Intubation, dose end: 15 GD
[15] = system: rat; details: Prenatal developmental toxicity study, sprague dawley, Oral, Gavage/Intubation, dose end: 15 GD
[16] = group: offspring, systemic / organ weight / thymus / absolute
[17] = group: offspring, systemic / organ weight / thymus / absolute + systemic / organ weight / thymus / relative to body weight
[18] = group: parental, systemic / organ weight / liver / absolute + systemic / organ weight / liver / relative to body weight
[19] = group: parental, systemic / organ weight / liver / absolute + systemic / organ weight / liver / relative to body weight + systemic / in life observation / …
[20] = group: offspring, developmental / offspring survival late / [other] / [other] + systemic / in life observation / body weight / offspring (pup) weight
[21] = group: parental, systemic / in life observation / body weight / body weight + systemic / in life observation / food consumption / food consumption
[22] = group: reproductive, reproductive / offspring survival early / litter size / litter size + reproductive / offspring survival early / live fetuses / live fetuses
[23] = group: developmental, systemic / in life observation / body weight / fetal weight
[24] = group: maternal, systemic / in life observation / body weight / body weight + systemic / in life observation / body weight / body weight gain + systemic / in…
[25] = group: maternal, systemic / in life observation / body weight / body weight gain + systemic / in life observation / food consumption / food consumption
[26] = group: parental, systemic / in life observation / body weight / body weight + systemic / organ weight / kidney / nos + systemic / organ weight / liver / nos…
[27] = group: reproductive, reproductive / reproductive performance / fertility / fertility + reproductive / offspring survival early / live fetuses / live fetuses
[28] = group: reproductive, reproductive / reproductive performance / fertility / fertility + reproductive / offspring survival early / live fetuses / live fetuses + …
[29] = group: offspring, systemic / in life observation / body weight / offspring (pup) weight
[30] = group: parental, systemic / organ weight / ovary / nos
[31] = group: reproductive, reproductive / reproductive performance / gestational length / gestational length
[32] = systemic / pathology microscopic / testes / atrophy
[33] = group: developmental, developmental / developmental landmark / vaginal opening / vaginal opening
[34] = group: maternal, reproductive / reproductive performance / estrous cycle / [other]
[35] = group: maternal, reproductive / reproductive performance / estrous cycle / [other] + reproductive / reproductive performance / estrous cycle / abnormal + …
[36] = group: parental, systemic / organ weight / liver / absolute + systemic / organ weight / ovary / absolute + systemic / organ weight / pituitary gland / …
[37] = group: maternal, reproductive / reproductive performance / estrous cycle / corpora lutea
[38] = group: parental, systemic / pathology microscopic / ovary / follicle count + systemic / pathology microscopic / uterus / thickened
[39] = group: developmental, developmental / developmental malformation / bone / misshapen + developmental / developmental malformation / gallbladder / hypoplasia + …
[40] = group: parental, systemic / in life observation / body weight / body weight + systemic / organ weight / ovary / nos
[41] = group: parental, systemic / in life observation / body weight / body weight + systemic / organ weight / ovary / nos + systemic / pathology microscopic / …
[42] = group: reproductive, reproductive / reproductive performance / fertility / fertility
[43] = group: reproductive, reproductive / reproductive performance / fertility / fertility + reproductive / reproductive performance / estrous cycle / corpora lutea
[44] = group: cholinesterase, cholinesterase / cholinesterase / cholinesterase / brain cholinesterase (che) + cholinesterase / cholinesterase / cholinesterase / …
[45] = group: developmental, developmental / developmental malformation / bone / incomplete ossification
[46] = group: maternal, reproductive / reproductive performance / resorptions / resorptions + systemic / in life observation / clinical signs / abnormal feces
[47] = group: maternal, systemic / in life observation / mortality / mortality
[48] = group: maternal, systemic / in life observation / mortality / mortality + systemic / organ weight / liver / absolute + systemic / organ weight / uterus / nos
[49] = group: maternal, systemic / in life observation / body weight / body weight gain + systemic / in life observation / clinical signs / fur (altered appearance…

## CCCCc1ccccc1 [Butylbenzene]
[1]; [16]
  NEL: 100 mg/kg/day
  NOAEL: 100 mg/kg/day
[1]; [17]
  LEL: 300 mg/kg/day
  LOAEL: 300 mg/kg/day
[1]; [18]
  LEL: 30 mg/kg/day
  NEL: < 30 mg/kg/day
[1]; [19]
  LOAEL: 100 mg/kg/day
  NOAEL: 30 mg/kg/day

## Cl/C=C\C[N+]12CN3CN(CN(C3)C1)C2.[Cl-] [Chloroallyl methenamine chloride]
[2]; [20]
  LEL: 14.8 mg/kg/day
  LOAEL: > 14.8 mg/kg/day
  NEL: 5 mg/kg/day
  NOAEL: ≥ 14.8 mg/kg/day
[2]; [21]
  LEL: 4.57 mg/kg/day
  LOAEL: > 13.4 mg/kg/day
  NEL: 1.53 mg/kg/day
  NOAEL: ≥ 13.4 mg/kg/day
[2]; group: reproductive, reproductive / offspring survival early / litter size / litter size
  NEL: 5 mg/kg/day
[2]; [22]
  LEL: 14.8 mg/kg/day
  LOAEL: > 14.8 mg/kg/day
  NOAEL: ≥ 14.8 mg/kg/day
[3]; [23]
  LEL: 75 mg/kg/day
  LOAEL: > 75 mg/kg/day
  NEL: 25 mg/kg/day
  NOAEL: ≥ 75 mg/kg/day
[3]; [24]
  LOAEL: 75 mg/kg/day
  NOAEL: 25 mg/kg/day
[3]; [25]
  LEL: 25 mg/kg/day
  NEL: < 25 mg/kg/day

## CCCCCOC(=O)c1ccccc1C(=O)OCCCCC [Dipentyl phthalate]
[4]; group: parental, systemic / in life observation / body weight / body weight + systemic / organ weight / kidney / nos + systemic / organ weight / liver / nos
  NEL: 2.16 mg/kg/day
[4]; [26]
  LEL: 4.79 mg/kg/day
  LOAEL: > 4.79 mg/kg/day
  NOAEL: ≥ 4.79 mg/kg/day
[4]; [27]
  LEL: 0.76 mg/kg/day
  NEL: < 0.76 mg/kg/day
[4]; [28]
  LOAEL: > 4.79 mg/kg/day
  NOAEL: ≥ 4.79 mg/kg/day

## CC1(C)CCC(Cc2ccc(Cl)cc2)C1(O)Cn1cncn1 (stereo not drawn) [Metconazole]
[5]; [29]
  LEL: 32 mg/kg/day
  LOAEL: 32 mg/kg/day
  NEL: 8 mg/kg/day
  NOAEL: 8 mg/kg/day
[5]; [30]
  LEL: 32 mg/kg/day
  LOAEL: 32 mg/kg/day
  NEL: 8 mg/kg/day
  NOAEL: 8 mg/kg/day
[5]; [31]
  LEL: 32 mg/kg/day
  LOAEL: > 32 mg/kg/day
  NEL: 8 mg/kg/day
  NOAEL: ≥ 32 mg/kg/day

## Cc1ccccc1CO[C@@H]1C[C@@]2(C(C)C)CC[C@]1(C)O2 [Cinmethylin]
[6]
  LEL: 1.5 mg/kg/day
  LOAEL: > 50 mg/kg/day
  NEL: < 1.5 mg/kg/day
  NOAEL: ≥ 50 mg/kg/day
[7]
  LEL: 75 mg/kg/day
  LOAEL: 75 mg/kg/day
  NEL: 7.5 mg/kg/day
  NOAEL: 7.5 mg/kg/day
[8]; systemic / pathology microscopic / kidney / nephropathy
  LOAEL: 150 mg/kg/day
[8]; systemic / pathology microscopic / kidney / nephropathy + systemic / organ weight / liver / relative to body weight + systemic / organ …
  NOAEL: 5 mg/kg/day
[8]; [32]
  LEL: 1.5 mg/kg/day
  NEL: < 1.5 mg/kg/day

## COc1ccc(C(c2ccc(OC)cc2)C(Cl)(Cl)Cl)cc1 [Methoxychlor]
[9]; [33]
  LEL: 12.5 mg/kg/day
  LOAEL: > 50 mg/kg/day
  NEL: < 12.5 mg/kg/day
  NOAEL: ≥ 50 mg/kg/day
[9]; [34]
  LEL: 12.5 mg/kg/day
  NEL: < 12.5 mg/kg/day
[9]; [35]
  LOAEL: > 50 mg/kg/day
  NOAEL: ≥ 50 mg/kg/day
[9]; [36]
  LEL: 50 mg/kg/day
  LOAEL: > 50 mg/kg/day
  NEL: 25 mg/kg/day
  NOAEL: ≥ 50 mg/kg/day

## CC(C)COC(=O)c1ccc(O)cc1 [Isobutylparaben]
[10]; [37]
  LEL: 62.5 mg/kg/day
  LOAEL: > 1000 mg/kg/day
  NEL: < 62.5 mg/kg/day
  NOAEL: ≥ 1000 mg/kg/day
[10]; [38]
  LEL: 62.5 mg/kg/day
  LOAEL: > 1000 mg/kg/day
  NEL: < 62.5 mg/kg/day
  NOAEL: ≥ 1000 mg/kg/day

## CC1=C(C(=O)Nc2ccccc2)S(=O)(=O)CCO1 [Oxycarboxin]
[11]; [39]
  LEL: 750 mg/kg/day
  LOAEL: 750 mg/kg/day
  NEL: 150 mg/kg/day
  NOAEL: 150 mg/kg/day
[11]; [24]
  LEL: 750 mg/kg/day
  LOAEL: 750 mg/kg/day
  NEL: 150 mg/kg/day
  NOAEL: 150 mg/kg/day

## CCS(=O)CCSP(=O)(OC)OC (stereo not drawn) [Oxydemeton-methyl]
[12]; [20]
  LEL: 2.1 mg/kg/day
  LOAEL: 2.1 mg/kg/day
  NEL: 0.38 mg/kg/day
  NOAEL: 0.38 mg/kg/day
[12]; [40]
  NEL: 0.38 mg/kg/day
  NOAEL: 0.38 mg/kg/day
[12]; [41]
  LEL: 2.1 mg/kg/day
  LOAEL: 2.1 mg/kg/day
[12]; [42]
  NEL: 0.38 mg/kg/day
  NOAEL: 0.38 mg/kg/day
[12]; [43]
  LEL: 2.1 mg/kg/day
  LOAEL: 2.1 mg/kg/day
[13]; [44]
  LEL: 1.6 mg/kg/day
  LOAEL: 1.6 mg/kg/day
  NEL: 0.4 mg/kg/day
  NOAEL: 0.4 mg/kg/day
[13]; [45]
  LEL: 0.1 mg/kg/day
  LOAEL: 0.1 mg/kg/day
  NEL: < 0.1 mg/kg/day
  NOAEL: < 0.1 mg/kg/day
[13]; [46]
  LOAEL: > 1.6 mg/kg/day
  NEL: 0.1 mg/kg/day
  NOAEL: ≥ 1.6 mg/kg/day
[13]; group: maternal, systemic / in life observation / clinical signs / abnormal feces
  LEL: 0.4 mg/kg/day

## CN(C)[C@@H]1C(=O)C(C(N)=O)=C(O)[C@@]2(O)C(=O)C3=C(O)c4c(O)cccc4[C@@](C)(O)[C@H]3[C@H](O)[C@@H]12 [Oxytetracycline]
[14]; [23]
  LEL: 2100 mg/kg/day
  LOAEL: > 2100 mg/kg/day
  NEL: 1670 mg/kg/day
  NOAEL: ≥ 2100 mg/kg/day
[14]; [47]
  LEL: 1320 mg/kg/day
  NEL: < 1320 mg/kg/day
[14]; [48]
  LOAEL: > 2100 mg/kg/day
  NOAEL: ≥ 2100 mg/kg/day
[15]; [23]
  LEL: 1200 mg/kg/day
  LOAEL: > 1500 mg/kg/day
  NEL: < 1200 mg/kg/day
  NOAEL: ≥ 1500 mg/kg/day
[15]; [49]
  LEL: 1200 mg/kg/day
  LOAEL: > 1500 mg/kg/day
  NEL: < 1200 mg/kg/day
  NOAEL: ≥ 1500 mg/kg/day
